Results reported in article PMC7284918, “In-Depth Characterization of EpiIntestinal Microtissue as a Model for Intestinal Drug Absorption and Metabolism in Human” (Pharmaceutics, 2020).
Like-named read-outs stand apart in the source and are kept apart here. Marks after values point to notes of the source that are not given here.

Assays:
[1] = human, cited from earlier work
[2] = Clinical pharmacokinetic data and calculated Fa × Fg in human; assay type: in vivo; conditions: calculated from clinical pharmacokinetic data (Section 2.8, Table 2)
Description: A set of 12 marketed drugs are selected for the evaluation of EpiIntestinal microtissues.

[3] = Intestinal first-pass availability in EpiIntestinal microtissues; assay type: in vitro ADME, human; conditions: human, 10 µM apical
Experimental: (§1) Compounds were diluted in culture media to a final concentration of 10 µM and added to the apical (donor) compartment (total volume: 100 µL for EpiIntestinal and 200 µL for Caco-2). After the incubation at 37 °C for 2, 4, 6, and 24 h, samples (50 µL) were taken from the basal (receiver) compartment (total volume: 5000 µL for EpiIntestinal and 800 µL for Caco-2). After the last timepoint, samples from the donor compartments and the cell lysates were also collected. Compound concentrations in the samples were determined by HPLC-MS/MS (Section 2.3).
(§2) GI first-pass availability of the tested compounds was expressed as fraction (%) of the total amount of a compound added to the donor compartment recovered in the receiver compartment.

[4] = target: T1, CYP1A2 (Homo sapiens, UniProt P05177)
T1 sequence (P05177 1-516): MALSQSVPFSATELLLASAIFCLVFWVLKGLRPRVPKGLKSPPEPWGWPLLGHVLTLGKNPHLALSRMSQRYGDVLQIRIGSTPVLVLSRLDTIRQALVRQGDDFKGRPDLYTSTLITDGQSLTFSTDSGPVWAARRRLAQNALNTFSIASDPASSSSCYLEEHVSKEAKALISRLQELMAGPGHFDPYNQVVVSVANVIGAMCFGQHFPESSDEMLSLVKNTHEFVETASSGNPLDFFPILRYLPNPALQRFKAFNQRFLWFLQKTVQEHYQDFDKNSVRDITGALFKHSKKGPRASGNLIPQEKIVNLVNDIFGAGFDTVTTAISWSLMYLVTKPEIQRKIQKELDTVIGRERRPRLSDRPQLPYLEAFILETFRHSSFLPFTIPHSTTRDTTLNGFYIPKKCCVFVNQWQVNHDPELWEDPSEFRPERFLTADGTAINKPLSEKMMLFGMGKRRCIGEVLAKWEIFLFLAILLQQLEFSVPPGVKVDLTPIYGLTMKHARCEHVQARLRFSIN
Experimental: (§3) For measurements of DME activities in EpiIntestinal microtissues and Caco-2 cells, both were cultured in 96-well Transwell inserts. Drugs (Table 1) were dissolved in the respective solvent at 200x concentration and diluted in a pre-warmed transport buffer. Diluted substrate solution was applied to the apical (100 µL) and basal (250 µL) compartment of the Transwell and incubated at 37 °C and 5% CO2 and 60 rpm continuous shaking. DME activities were determined by monitoring metabolite formation in basal compartment over time (0, 0.5, 1, 2, 3 and 4 h) with LC-MS/MS. […] Chromatographic separation of samples was performed on YMC Triart C18 (1.9 µm, 30 × 2 mm; YMC Europe, Dinslaken, Germany) LC analytical column. Quantification of all metabolites listed in Table 1 was achieved by the use of calibration curves for the individual metabolites with appropriate concentration ranges.
(§4) A total of 10 µL of the incubation sample were diluted with 90 µL of water containing 10–20% ACN or methanol, 0.1% formic acid and the respective internal standard. To analyze the intracellular metabolite concentration, cells on Transwell inserts were washed twice with ice-cold PBS and stored at −80 °C for 20 min. Afterwards, 150 µL 50% ACN diluted with transport buffer was added to the cells and incubated at room temperature for 30 min. Cell lysate was transferred to a fresh 96-well plate and centrifuged at 4 °C, 4000 rpm for 10 min. Subsequently, 10 µL of the supernatant were diluted with 90 µl water containing 10–20% ACN or methanol, 0.1% formic acid and the respective internal standard. A total of 2 µL sample was injected into the LC-MS/MS system operated with an electrospray ionization source.

[5] = target: T1, CYP1A2; remark: listed apart in the source
Experimental: as §3
A total of 10 µL of the incubation sample were diluted with 90 µL of water containing 10–20% ACN or methanol, 0.1% formic acid and the respective internal standard. To analyze the intracellular metabolite concentration, cells on Transwell inserts were washed twice with ice-cold PBS and stored at −80 °C for 20 min. Afterwards, 150 µL 50% ACN diluted with transport buffer was added to the cells and incubated at room temperature for 30 min. […]

[6] = system: Caco-2 cells; experiment: Bidirectional permeability assay in Caco-2; assay type: in vitro ADME, human; conditions: Ko-143 3 µM, zosuquidar 5 µM
[7] = system: EpiIntestinal microtissues; experiment: Bidirectional permeability assay in EpiIntestinal microtissues; assay type: in vitro ADME, human; conditions: Ko-143 3 µM, zosuquidar 5 µM
Experimental: Caco-2 cells were obtained from Leibniz Institute DSMZ-German Collection of Microorganisms and Cell Cultures (Braunschweig, Germany) and cultured in DMEM containing 10% FCS, 1% NEAA, 2 mM Glutamin, 100 U/mL Penicillin and 100 µg/mL Streptomycin. […] EpiIntestinal microtissues were obtained from MatTek (Bratislav, Slovakia) and cultured according to the manufacturer’s instruction (24-well format for bidirectional permeability assays and GI firstpass availability assays and 96-well format for screening of DME activities).
Bidirectional permeability assays were performed as described previously. […] In indicated experiments, inhibitors were added to both compartments. Cells were incubated with the compounds for up to 2 h. Samples from the opposite compartment were taken at different timepoints. […] Prior to bioanalysis samples were spiked with internal standard solution and diluted with acetonitrile (ACN) for protein precipitation. Measurement was operated in multiple reaction monitoring (MRM) mode. Quantification was performed using external calibration. Apparent permeability coefficients in the apical to basal direction (Papp,AB) and in the basal to apical direction (Papp,BA) and efflux were calculated as follows Papp,AB=QAB/(C0×s×t) Papp,BA=QBA/(C0×s×t) Efflux=Papp,BA/Papp,AB where Q is the amount of compound recovered in the receiver compartment after the incubation time t, C0 the initial compound concentration given to the donor compartment, and s the surface area of the Transwell inserts. Efflux ratio is calculated as the quotient of Papp,BA to Papp,AB. […] In addition, Transepithelial electrical resistance (TEER) values are measured for each plate before the permeability assay and total recovery in donor and receiver compartments was determined for each compound. All these parameters (efflux of apafant, Papp values of the low permeable compound, TEER values, and total recovery) are used to ensure the quality of the assays.

[8] = system: EpiIntestinal microtissues; experiment: Metabolite identification in EpiIntestinal microtissues; assay type: in vitro ADME, human; conditions: 10 µM, peak areas at end of incubation
Experimental: (§5) Raloxifene or ezetimibe (10 µM) in culture media was added to the apical compartment of EpiIntestinal microtissues or incubated with cryopreserved human intestinal mucosa (HIM). […] Analysis was performed on a LC-MS system containing a Vanquish UPLC (ThermoFisher Scientific, San Jose, CA, USA) coupled to an Orbitrap FusionTribrid high resolution mass spectrometer (ThermoFisher Scientific). Structure elucidation was based on exact mass measurements in combination with the interpretation of fragment spectra.

[9] = system: human intestinal mucosa (HIM); experiment: Metabolite identification in cryopreserved human intestinal mucosa (HIM); assay type: in vitro ADME; conditions: 10 µM, peak areas at end of incubation
Experimental: as §5

[10] = system: EpiIntestinal microtissues; experiment: Intestinal first-pass availability in EpiIntestinal microtissues; assay type: in vitro ADME, human
Experimental: as §1, §2

[11] = system: Caco-2 cells; experiment: Intestinal first-pass availability in Caco-2; assay type: in vitro ADME, human; conditions: Caco-2
Experimental: as §1, §2

[12] = system: CYP3A4; conditions: Caco-2
Experimental: as §3, §4

[13] = Intestinal first-pass availability in Caco-2; assay type: in vitro ADME, human; conditions: human, Caco-2, Caco-2, 10 µM apical, read-out: Recovery in basal/receiver compartment after 24 h
Experimental: as §1, §2

[14] = in vitro; conditions: human, plasma
Description: Blood CLb can be converted from plasma clearance CLp with the blood-to-plasma ratio RB: CLb=CLp/RB

[15] = EpiIntestinal microtissues, GI firstpass availability, read-out: Recovery in Basal Comp. @ 24h (%)
[16] = clinical, ref Prescription information at fda.gov

Structure (SMILES): COC(=O)C1=C(C)NC(C)=C(C(=O)OC)C1c1ccccc1[N+](=O)[O-] [Nifedipine]
- fe (fraction of renal excretion) ([1]; in vivo): 0 [16]

Structure (SMILES): CC(C)NCC(O)COc1ccc(CC(N)=O)cc1 (centres unmarked) [Atenolol]
- Fa × Fg in Human (%) [2]: 50%
- recovery at 24 h, 10 µM [3, 15]: 86%

Structure (SMILES): CC(C)(C)NC(=O)[C@@H]1C[C@@H]2CCCC[C@@H]2CN1C[C@@H](O)[C@H](Cc1ccccc1)NC(=O)[C@H](CC(N)=O)NC(=O)c1ccc2ccccc2n1 [Saquinavir]
- Fa × Fg in Human (%) [2]: 25%
- recovery at 24 h, 10 µM [3, 15]: 18%
- F (total oral availability) ([1]; clinical): 0.04 [8]
- fe (fraction of renal excretion) [1, 16]: 0.01 *

Structure (SMILES): CCN(CC)CC#CCOC(=O)C(O)(c1ccccc1)C1CCCCC1 (centres unmarked) [Oxybutynin]
- Fa × Fg in Human (%) [2]: 9%
- F (total oral availability) ([1]; clinical): 0.06 [8]
- fe (fraction of renal excretion) [1, 16]: 0 *
- CLp (plasma clearance) ([1]; in vivo): 5.1 [15] mL/min/kg

Structure (SMILES): CCOc1ccc(NC(C)=O)cc1 [Phenacetin]
- Intracellular Metabolite (% of Total) [4]: BLQ
- Enzyme Activities Mean/SD ([4]; human): 123.1/4.8 pmol/h/cm^2
- Intracellular Metabolite (% of Total) [5]: BLQ
- Enzyme Activities Mean/SD ([5]; human): 17.4/3.0 pmol/h/cm^2

Structure (SMILES): COc1ccc2c3c([nH]c2c1)[C@H](CC(C)C)N1C(=O)[C@H](CCC(=O)OC(C)(C)C)NC(=O)[C@@H]1C3 [Ko-143]
- Effect of inhibitor on the efflux of rosuvastatin [6]: strongly reduced
- Effect of inhibitor on the efflux of rosuvastatin [7]: strongly reduced

Structure (SMILES): O=C1[C@H](CC[C@H](O)c2ccc(F)cc2)[C@@H](c2ccc(O)cc2)N1c1ccc(F)cc1 [Ezetimibe]
- Parent (% of parent drug at T0) [8]: 8.4 % of parent drug at T0
- Parent (% of parent drug at T0) [9]: 40.3 % of parent drug at T0

Structure (SMILES): CC(C)(C)NC(=O)[C@@H]1CN(Cc2cccnc2)CCN1C[C@@H](O)C[C@@H](Cc1ccccc1)C(=O)N[C@H]1c2ccccc2C[C@H]1O [Indinavir]
- Fa × Fg in Human (%) [2]: 100%
- recovery at 24 h, 10 µM [3, 15]: 53%
- F (total oral availability) ([1]; clinical): 0.6 [8]
- fe (fraction of renal excretion) ([1]; clinical): 0.085 [16]

Structure (SMILES): COc1ccc(CCN2CCC(Nc3nc4ccccc4n3Cc3ccc(F)cc3)CC2)cc1 [Astemizole]
- Availability in the receiver compartment on co-incubation with CYP2J2 inhibitor ([10]; 10 µM apical, Ebastein (50 µM)): increased
- Availability in the receiver compartment on co-incubation with CYP2J2 inhibitor ([11]; 10 µM apical, Ebastein (50 µM)): increased

Structure (SMILES): C[C@]12CC[C@H]3[C@@H](CCC4=CC(=O)CC[C@@]43C)[C@@H]1CC[C@@H]2O [Testosterone]
- Intracellular Metabolite (% of Total) ([12]; CYP3A4/Testosterone, metabolite 6β-OH-Testosterone): BLQ

Structure (SMILES): O=C1CC2(CCCC2)CC(=O)N1CCCCN1CCN(c2ncccn2)CC1 [Buspirone]
- Fa × Fg in Human (%) [2]: 70%
- recovery at 24 h, 10 µM [3, 15]: 60%
- CLp (plasma clearance) ([1]; clinical): 28.3 [8] mL/min/kg
- fe (fraction of renal excretion) ([1]; clinical): 0.45 [19]

Structure (SMILES): CCOC(=O)C1=C(C)NC(C)=C(C(=O)OC)C1c1cccc(Cl)c1Cl (centres unmarked) [Felodipine]
- recovery at 24 h, 10 µM [3, 15]: 47%

Structure (SMILES): CCc1c2c(nc3ccc(OC(=O)N4CCC(N5CCCCC5)CC4)cc13)-c1cc3c(c(=O)n1C2)COC(=O)[C@]3(O)CC [Irinotecan]
- recovery at 24 h, 10 µM [3, 15]: 62%

Structure (SMILES): Cc1ncc2n1-c1ccc(Cl)cc1C(c1ccccc1F)=NC2 [Midazolam]
- Fa × Fg in Human (%) [2]: 59%
- recovery at 24 h, 10 µM ([3]; with CYP3A4 inhibitor CYP3cide (1 µM), read-out: Recovery in basal/receiver compartment after 24 h): 75.9%
- recovery at 24 h, 10 µM [3, 15]: 47%
- recovery at 24 h, 10 µM ([3]; EpiIntestinal microtissues, no inhibitor, read-out: Recovery in basal/receiver compartment after 24 h): 46.7%
- 1-hydroxymidazolam (CYP3A4-selective metabolite) detected ([10]; midazolam 10 µM apical, no inhibitor): substantial amount
- recovery at 24 h, 10 µM ([13]; no inhibitor): 81%
- recovery at 24 h, 10 µM ([13]; with CYP3A4 inhibitor CYP3cide (1 µM)): 87.9%
- 1-hydroxymidazolam (CYP3A4-selective metabolite) detected ([11]; midazolam 10 µM apical): negligible amount
- Intracellular Metabolite (% of Total) ([12]; CYP3A4/Midazolam, metabolite 1-OH-Midazolam): BLQ
- Enzyme Activities Mean/SD ([12]; CYP3A4/Midazolam, rate of 1-OH-Midazolam formation in supernatant): BLQ
- blood plasma ratio [14]: 0.64
- F (total oral availability) ([1]; clinical): 0.4 [8]
- fe (fraction of renal excretion) ([1]; clinical): 0 [16]

Structure (SMILES): O[C@@H](COc1cccc2ncccc12)CN1CCN([C@@H]2c3ccccc3[C@@H]3[C@H](c4ccccc42)C3(F)F)CC1 [zosuquidar]
- Effect of inhibitor on the efflux of rosuvastatin [6]: minor effect
- Effect of inhibitor on the efflux of rosuvastatin [7]: minor effect

Structure (SMILES): O=C(c1ccc(OCCN2CCCCC2)cc1)c1c(-c2ccc(O)cc2)sc2cc(O)ccc12 [Raloxifene]
- Parent (% of parent drug at T0) [8]: 2.4 % of parent drug at T0
- Parent (% of parent drug at T0) [9]: 33.2 % of parent drug at T0

Structure (SMILES): CC(C)c1c(C(=O)Nc2ccccc2)c(-c2ccccc2)c(-c2ccc(F)cc2)n1CC[C@@H](O)C[C@@H](O)CC(=O)O [Atorvastatin]
- recovery at 24 h, 10 µM [3, 15]: 43%
